System: moderate-to-severe chronic spontaneous urticaria (CSU)
Assay: Phase 2 CSU study: itch severity score over 7 days (ISS7)
Format: in vivo, human
Settings: for Change from Baseline in ISS7 at Week 12, LS Mean Diff vs. placebo / Change from Baseline in ISS7 at Week 12, Mean / Change from Baseline in ISS7 at Week 12, LS Mean: Omalizumab-naïve population; for ISS7 change from baseline at Week 12, LS Mean / ISS7 change from baseline at Week 12, LS Mean Diff vs. placebo: ANCOVA
Source text: The study comprises a 12 week, randomized, double-blind, placebo-controlled, multi-center, dose-ranging efficacy and safety phase, followed by a 40 week open label extension (OLE) phase (see FIG. 1). The study consists of three phases and an optional OLE phase. […] Clinically, CSU is characterized by the spontaneous and recurrent appearance of pruritic hives. The proposed primary endpoints were the UAS7 at Week 12 in EU and EU reference countries and the ISS7 in the US. Regardless of where a participant was from, all assessments were the same. The UAS7 score is a composite score containing both the HSS7 and the ISS7. This allowed a global assessment of the two key components of urticaria: hives and itch. […] The UAS is a validated PRO measure. […] The daily UAS scores range from 0 to 6 point/day. […] Patients were to complete the UAS using the e-diary. […] The following secondary endpoints were to be analyzed using the same approach as for the primary endpoint: • Change from baseline in UAS7 at Week 4 • Change from baseline in UAS7 at Week 12 (for US and US reference countries) • Change from baseline in ISS7 at Week 12 (except US and US reference countries) • Change from baseline in HSS7 at Week 12

[1] = 400 mg BID, Race All the Others
[2] = 400 mg BID, Region Eastern Europe
[3] = 400 mg BID, Region Latin America
[4] = 400 mg BID, Region Western Countries
[5] = 400 mg BID, omalizumab-naïve population
[6] = 400 mg BID, omalizumab-naïve population with outlier removed
[7] = 400 mg QPM, Age group (years) <44 (Median)
[8] = 400 mg QPM, Age group (years) <65
[9] = 400 mg QPM, Age group (years) ≥44 (Median)
[10] = 400 mg QPM, Baseline BHRA BHRA+
[11] = 400 mg QPM, Baseline BHRA BHRA−
[12] = 400 mg QPM, Baseline Eosinophils (10^9/L) <0.165 (Median)
[13] = 400 mg QPM, Baseline Eosinophils (10^9/L) <0.3
[14] = 400 mg QPM, Baseline Eosinophils (10^9/L) ≥0.165 (Median)
[15] = 400 mg QPM, Baseline Eosinophils (10^9/L) ≥0.3
[16] = 400 mg QPM, Baseline H1-antihistamines dose 1-fold
[17] = 400 mg QPM, Baseline H1-antihistamines dose 2 to 4-fold standard dose
[18] = 400 mg QPM, Baseline ISS7 score <13
[19] = 400 mg QPM, Baseline ISS7 score ≥13
[20] = 400 mg QPM, Baseline Total IgE (IU/mL) <100
[21] = 400 mg QPM, Baseline Total IgE (IU/mL) <300
[22] = 400 mg QPM, Baseline Total IgE (IU/mL) ≥100
[23] = 400 mg QPM, Baseline Total IgE (IU/mL) ≥300
[24] = 400 mg QPM, Baseline UAS7 score <28
[25] = 400 mg QPM, Baseline UAS7 score ≥28
[26] = 400 mg QPM, Duration of disease (years) 2-10

CC(C)(C=C(C#N)C(=O)N1CCC[C@@H](n2nc(-c3ccc(Oc4ccccc4)cc3F)c3c(N)ncnc32)C1)N1CCN(C2COC2)CC1 [rilzabrutinib, (R)-2-[3-[4-amino-3-(2-fluoro-4-phenoxy-phenyl)pyrazolo[3,4-d]pyrimidin-1-yl]piperidine-1-carbonyl]-4-methyl-4-[4-(oxetan-3-yl)piperazin-1-yl]pent-2-enenitrile]
Change from Baseline in ISS7 at Week 12, LS Mean Diff vs. placebo [1]: −3.52
Change from Baseline in ISS7 at Week 12, Mean [1]: −6.86
Change from Baseline in ISS7 at Week 12, LS Mean (400 mg BID, Race White): −7.91
Change from Baseline in ISS7 at Week 12, LS Mean Diff vs. placebo (400 mg BID, Race White): −1.90
Change from Baseline in ISS7 at Week 12, Mean (400 mg BID, Race White): −7.64
Change from Baseline in ISS7 at Week 12, LS Mean (400 mg BID, Region Asia): −6.99
Change from Baseline in ISS7 at Week 12, LS Mean Diff vs. placebo (400 mg BID, Region Asia): −3.54
Change from Baseline in ISS7 at Week 12, Mean (400 mg BID, Region Asia): −6.86
Change from Baseline in ISS7 at Week 12, LS Mean [2]: −4.38
Change from Baseline in ISS7 at Week 12, LS Mean Diff vs. placebo [2]: 8.28
Change from Baseline in ISS7 at Week 12, Mean [2]: −10.81
Change from Baseline in ISS7 at Week 12, LS Mean [3]: −4.75
Change from Baseline in ISS7 at Week 12, LS Mean Diff vs. placebo [3]: 1.84
Change from Baseline in ISS7 at Week 12, Mean [3]: −4.42
Change from Baseline in ISS7 at Week 12, LS Mean [4]: −10.12
Change from Baseline in ISS7 at Week 12, LS Mean Diff vs. placebo [4]: −5.57
Change from Baseline in ISS7 at Week 12, Mean [4]: 9.95
ISS7 at Week 12, Mean [5]: 8.09
ISS7 at Week 12, Median [5]: 7.00
ISS7 change from baseline at Week 12, Mean [5]: −7.40
ISS7 change from baseline at Week 12, Median [5]: −7.00
LS mean reduction in ISS7 (see Table 30) [5]: −5.06
ISS7 at Week 12, Mean [6]: 8.09
ISS7 at Week 12, Median [6]: 7.00
ISS7 change from baseline at Week 12, Mean [6]: −7.40
ISS7 change from baseline at Week 12, Median [6]: −7.00
ISS7 change from baseline at Week 12, LS Mean [6]: −7.76 points
ISS7 change from baseline at Week 12, LS Mean Diff vs. placebo [6]: −2.05
ISS7 change from baseline at Week 12, LS Mean [5]: −7.73 points
ISS7 change from baseline at Week 12, LS Mean Diff vs. placebo [5]: −1.96
Change from Baseline in ISS7 at Week 12, LS Mean [7]: −4.68
Change from Baseline in ISS7 at Week 12, LS Mean Diff vs. placebo [7]: −0.21
Change from Baseline in ISS7 at Week 12, Mean [7]: −5.45
Change from Baseline in ISS7 at Week 12, LS Mean [8]: −4.78
Change from Baseline in ISS7 at Week 12, LS Mean Diff vs. placebo [8]: 0.88
Change from Baseline in ISS7 at Week 12, Mean [8]: −5.68
Change from Baseline in ISS7 at Week 12, LS Mean [9]: −4.77
Change from Baseline in ISS7 at Week 12, LS Mean Diff vs. placebo [9]: 1.83
Change from Baseline in ISS7 at Week 12, Mean [9]: −5.95
Change from Baseline in ISS7 at Week 12, Mean (400 mg QPM, Age group (years) ≥65): −5.83
Change from Baseline in ISS7 at Week 12, LS Mean [10]: −8.50
Change from Baseline in ISS7 at Week 12, LS Mean Diff vs. placebo [10]: −3.12
Change from Baseline in ISS7 at Week 12, Mean [10]: −9.13
Change from Baseline in ISS7 at Week 12, LS Mean [11]: −4.66
Change from Baseline in ISS7 at Week 12, Mean [11]: −5.45
Change from Baseline in ISS7 at Week 12, LS Mean Diff vs. placebo (400 mg QPM, Baseline BMI (kg/m^2) ≥30): 0.17
Change from Baseline in ISS7 at Week 12, LS Mean [12]: −4.00
Change from Baseline in ISS7 at Week 12, LS Mean Diff vs. placebo [12]: 2.51
Change from Baseline in ISS7 at Week 12, Mean [12]: −4.93
Change from Baseline in ISS7 at Week 12, LS Mean [13]: −4.64
Change from Baseline in ISS7 at Week 12, LS Mean Diff vs. placebo [13]: 0.83
Change from Baseline in ISS7 at Week 12, Mean [13]: −5.66
Change from Baseline in ISS7 at Week 12, LS Mean [14]: −5.54
Change from Baseline in ISS7 at Week 12, LS Mean Diff vs. placebo [14]: −1.46
Change from Baseline in ISS7 at Week 12, Mean [14]: 6.55
Change from Baseline in ISS7 at Week 12, LS Mean [15]: −5.53
Change from Baseline in ISS7 at Week 12, LS Mean Diff vs. placebo [15]: −0.68
Change from Baseline in ISS7 at Week 12, Mean [15]: −5.81
Change from Baseline in ISS7 at Week 12, LS Mean [16]: −4.24
Change from Baseline in ISS7 at Week 12, LS Mean Diff vs. placebo [16]: 2.59
Change from Baseline in ISS7 at Week 12, Mean [16]: −5.09
Change from Baseline in ISS7 at Week 12, LS Mean [17]: −5.28
Change from Baseline in ISS7 at Week 12, LS Mean Diff vs. placebo [17]: −1.80
Change from Baseline in ISS7 at Week 12, Mean [17]: −6.37
Change from Baseline in ISS7 at Week 12, LS Mean [18]: −1.87
Change from Baseline in ISS7 at Week 12, LS Mean Diff vs. placebo [18]: 0.85
Change from Baseline in ISS7 at Week 12, Mean [18]: −4.42
Change from Baseline in ISS7 at Week 12, LS Mean [19]: −5.38
Change from Baseline in ISS7 at Week 12, LS Mean Diff vs. placebo [19]: 0.36
Change from Baseline in ISS7 at Week 12, Mean [19]: −5.78
Change from Baseline in ISS7 at Week 12, LS Mean [20]: −3.37
Change from Baseline in ISS7 at Week 12, LS Mean Diff vs. placebo [20]: 0.87
Change from Baseline in ISS7 at Week 12, Mean [20]: −4.48
Change from Baseline in ISS7 at Week 12, LS Mean [21]: −4.46
Change from Baseline in ISS7 at Week 12, LS Mean Diff vs. placebo [21]: 0.05
Change from Baseline in ISS7 at Week 12, Mean [21]: −5.41
Change from Baseline in ISS7 at Week 12, LS Mean [22]: −5.51
Change from Baseline in ISS7 at Week 12, LS Mean Diff vs. placebo [22]: 0.52
Change from Baseline in ISS7 at Week 12, Mean [22]: −6.28
Change from Baseline in ISS7 at Week 12, LS Mean [23]: −4.90
Change from Baseline in ISS7 at Week 12, LS Mean Diff vs. placebo [23]: 1.64
Change from Baseline in ISS7 at Week 12, Mean [23]: −6.11
Change from Baseline in ISS7 at Week 12, LS Mean [24]: −3.33
Change from Baseline in ISS7 at Week 12, LS Mean Diff vs. placebo [24]: −0.15
Change from Baseline in ISS7 at Week 12, Mean [24]: −5.32
Change from Baseline in ISS7 at Week 12, LS Mean [25]: −5.59
Change from Baseline in ISS7 at Week 12, LS Mean Diff vs. placebo [25]: 1.01
Change from Baseline in ISS7 at Week 12, Mean [25]: −5.78
Change from Baseline in ISS7 at Week 12, LS Mean [26]: −5.24
Change from Baseline in ISS7 at Week 12, LS Mean Diff vs. placebo [26]: 1.79
Change from Baseline in ISS7 at Week 12, Mean [26]: −6.43

Source: patent US20260256792A1, “TREATMENT OF CHRONIC SPONTANEOUS URTICARIA BY ADMINISTERING (R)-2-[3-[4-AMINO-3-(2-FLUORO-4-PHENOXY-PHENYL)PYRAZOLO[3,4-D]PYRIMIDIN-1-YL]PIPERIDINE-1-CARBONYL]-4-METHYL-4-[4-(OXETAN-3-YL)PIPERAZIN-1-YL]PENT-2-ENENITRILE” (priority 2023, published 2026)
